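Interpolation was linear, between the two tested concentrations surrounding the appropriate level; five concentrations were tested over 48 hours in 96-well plates. GI50 is the concentration that inhibits growth by half.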 Calls of active or inactive are those of the source. Rule as the data show it: active = GI50 up to about 1.1 µM and inactive = higher.
What was measured:
Experiment in all cases: NCI tumour cell line growth inhibition, 48 h
[1] = system: CAKI-1
[2] = system: SF-539
[3] = system: OVCAR-3
[4] = system: Malme-3M
[5] = system: TK-10
[6] = system: CCRF-CEM
[7] = system: HL-60
[8] = system: HCT-15
[9] = system: HCC 2998
[10] = system: OVCAR-8
[11] = system: LOX IMVI
[12] = system: UACC-257
[13] = system: MDA-N
[14] = system: SF-268
[15] = system: A498
[16] = system: SR
[17] = system: SN12C
[18] = system: SK-MEL-2
[19] = system: UACC-62
[20] = system: NCI-H522

Compound	GI50 [1]	GI50 [2]	GI50 [3]	GI50 [4]	GI50 [5]	GI50 [6]	GI50 [7]	GI50 [8] [µM]	GI50 [9]	GI50 [10]	GI50 [11]	GI50 [12]	GI50 [13]	GI50 [14]	GI50 [15]	GI50 [16]	GI50 [17]	GI50 [18]	GI50 [19]	GI50 [20]
CC1=C(C)C(=O)C2=C(OCCO2)C1=O	17.6 µM (inactive)	19.9 µM (inactive)	10.3 µM (inactive)	15.9 µM (inactive)	16.9 µM (inactive)	3.73 µM (inactive)	2.96 µM (inactive)	17.5	19.5 µM (inactive)	3.08 µM (inactive)	12.1 µM (inactive)	13.8 µM (inactive)	10.3 µM (inactive)	27.1 µM (inactive)	19.5 µM (inactive)	4.09 µM (inactive)	20 µM (inactive)	–	–	–
COc1ccc(C(=O)c2sc(N(C)C)nc2-c2ccccc2)cc1	–	58.7 µM (inactive)	16.8 µM (inactive)	37.4 µM (inactive)	37.9 µM (inactive)	5.07 µM (inactive)	17.1 µM (inactive)	26.4	18.2 µM (inactive)	–	37.4 µM (inactive)	26.1 µM (inactive)	18.1 µM (inactive)	40.1 µM (inactive)	26.9 µM (inactive)	17.1 µM (inactive)	39.6 µM (inactive)	22.5 µM (inactive)	30.8 µM (inactive)	–
COc1ccc2c(c1)c1c(n2CCN2CCOCC2)-c2cccc(OC)c2CC1	> 100 µM (inactive)	33.3 µM (inactive)	52.7 µM (inactive)	16.9 µM (inactive)	44.6 µM (inactive)	18.7 µM (inactive)	–	29.5	26.6 µM (inactive)	46.8 µM (inactive)	–	58.5 µM (inactive)	33.4 µM (inactive)	> 100 µM (inactive)	26.6 µM (inactive)	10 µM (inactive)	47.2 µM (inactive)	22.3 µM (inactive)	29.6 µM (inactive)	20.2 µM (inactive)
CSc1ncc2c(C#N)c3sc4ccccc4n3c(=O)c2n1	73.8 µM (inactive)	40.1 µM (inactive)	> 100 µM (inactive)	> 100 µM (inactive)	61.1 µM (inactive)	> 100 µM (inactive)	> 100 µM (inactive)	80.4	> 100 µM (inactive)	26.1 µM (inactive)	> 100 µM (inactive)	> 100 µM (inactive)	> 100 µM (inactive)	16.1 µM (inactive)	> 100 µM (inactive)	19.6 µM (inactive)	> 100 µM (inactive)	> 100 µM (inactive)	> 100 µM (inactive)	–
O=C(Nc1ccccc1Cl)c1cc(S(=O)(=O)Nc2n[nH]c(=O)n2-c2ccccc2)c(S)cc1Cl	> 100 µM (inactive)	> 100 µM (inactive)	> 100 µM (inactive)	> 100 µM (inactive)	–	> 100 µM (inactive)	> 100 µM (inactive)	> 100	> 100 µM (inactive)	> 100 µM (inactive)	> 100 µM (inactive)	> 100 µM (inactive)	> 100 µM (inactive)	> 100 µM (inactive)	> 100 µM (inactive)	> 100 µM (inactive)	> 100 µM (inactive)	> 100 µM (inactive)	> 100 µM (inactive)	–
O=C(Cn1c(C(=O)/C=C/c2ccc(Cl)c(Cl)c2)nc2ccccc21)c1ccccc1	–	21.9 µM (inactive)	15.2 µM (inactive)	35.2 µM (inactive)	27.9 µM (inactive)	6.92 µM (inactive)	15.6 µM (inactive)	25.2	17.8 µM (inactive)	–	17.9 µM (inactive)	27.7 µM (inactive)	19.9 µM (inactive)	45.4 µM (inactive)	26.1 µM (inactive)	25 µM (inactive)	16 µM (inactive)	19.8 µM (inactive)	31 µM (inactive)	–

Source: ChEMBL document CHEMBL1201862, “PubChem BioAssay data set” (2004)
